Measured values published in the NIST ThermoML archive (doi:10.1016/j.jct.2006.02.001).
Where “and” joins values, the source holds several entries; their conditions need not be identical. Identical values can stand only once. Numbers after ± are expanded uncertainties.

How the values were obtained:
[1] = refractive index (Na D-line) (dimensionless); conditions: 101.33 kPa, Liquid
[2] = 101 kPa, Liquid

SMILES: Cc1ccccc1C [1,2-dimethylbenzene]
- refractive index ([1]; 288.15 K): 1.5072 ± 0.0096
- refractive index ([1]; 293.15 K): 1.5047 ± 0.0096
- refractive index ([1]; 298.15 K): 1.5018 ± 0.0096
- refractive index ([1]; 303.15 K): 1.5 ± 0.0096
- mass density ([2]; 288.15 K): 883.29 ± 0.91 kg/m3
- mass density ([2]; 293.15 K): 879.08 ± 0.92 kg/m3
- mass density ([2]; 298.15 K): 875.53 ± 0.94 kg/m3
- mass density ([2]; 303.15 K): 870.73 ± 0.95 kg/m3

SMILES: Cc1cc(C)cc(C)c1 [1,3,5-trimethylbenzene]
- refractive index ([1]; 288.15 K): 1.5045 ± 0.0097
- refractive index ([1]; 293.15 K): 1.4993 ± 0.0096
- refractive index ([1]; 298.15 K): 1.4976 ± 0.0096
- refractive index ([1]; 303.15 K): 1.4948 ± 0.0096
- mass density ([2]; 288.15 K): 869.17 ± 0.97 kg/m3
- mass density ([2]; 293.15 K): 865.07 ± 0.98 kg/m3
- mass density ([2]; 298.15 K): 861.06 ± 1 kg/m3
- mass density ([2]; 303.15 K): 856.95 ± 1 kg/m3

SMILES: Cc1cccc(C)c1 [1,3-dimethylbenzene]
- refractive index ([1]; 288.15 K): 1.4997 ± 0.0096
- refractive index ([1]; 293.15 K): 1.4973 ± 0.0096
- refractive index ([1]; 298.15 K): 1.4944 ± 0.0096
- refractive index ([1]; 303.15 K): 1.4925 ± 0.0096
- mass density ([2]; 288.15 K): 868.32 ± 0.89 kg/m3
- mass density ([2]; 293.15 K): 864.05 ± 0.91 kg/m3
- mass density ([2]; 298.15 K): 859.77 ± 0.93 kg/m3
- mass density ([2]; 303.15 K): 855.47 ± 0.95 kg/m3

SMILES: Cc1ccc(C)cc1 [1,4-dimethylbenzene]
- refractive index ([1]; 288.15 K): 1.4983 ± 0.0096
- refractive index ([1]; 293.15 K): 1.4958 ± 0.0096
- refractive index ([1]; 298.15 K): 1.4929 ± 0.0096
- refractive index ([1]; 303.15 K): 1.4915 ± 0.0096
- mass density ([2]; 288.15 K): 865.25 ± 0.91 kg/m3
- mass density ([2]; 293.15 K): 860.92 ± 0.93 kg/m3
- mass density ([2]; 298.15 K): 856.62 ± 0.94 kg/m3
- mass density ([2]; 303.15 K): 852.25 ± 0.96 kg/m3

SMILES: COc1ccccc1 [anisole]
- refractive index ([1]; 288.15 K): 1.5256 ± 0.0097
- refractive index ([1]; 293.15 K): 1.5172 ± 0.0097 and 1.5169 ± 0.0097
- refractive index ([1]; 298.15 K): 1.5141 ± 0.0096
- refractive index ([1]; 303.15 K): 1.5117 ± 0.0096
- mass density ([2]; 288.15 K): 998.44 ± 1.4 kg/m3
- mass density ([2]; 293.15 K): 993.65 ± 1.5 kg/m3
- mass density ([2]; 298.15 K): 989.15 ± 1.6 kg/m3
- mass density ([2]; 303.15 K): 984.37 ± 1.6 kg/m3
